Assays:
h4B1 = h4B1 (Homo sapiens, UniProt Q07343); experiment: In-vitro assay for PDE4 enzymes, real-time enzyme-coupled spectrophotometric assay (Table 3); format: biochemical
Procedure: (§1) In-vitro assay for PDE4 enzymes. The in-vitro activity of PDE4 enzymes and the in-vitro potency of therapeutic agents described in the present invention was measured using a real-time, enzyme-coupled spectrophotometric assay. By using three different coupling enzymes, the product of the PDE4 reaction is coupled to the oxidation of the reduced form β-nicotinamide adenine dinucleotide (NADH), which dissipation can be monitored spectrophotmetrically at […]. Assay description. Buffer A containing 50 mM Tris, pH 8.0, 16 mM MgCl2 and 80 mM KCl is prepared and stored at room temperature. Buffer B containing 50 mM Tris, pH 8.0 is prepared and stored at toom temperature. Stock solutions of the following reagents are prepared in Buffer B and stored at −20° C.: Adenosine-5′-triphosphate (ATP), cyclic adenosine-5′-monophosphate (cAMP), phosphoenolpyruvate (PEP) and NADH. An assay mix is prepared by mixing Buffer A, […] (TCEP), ATP, PEP, NADH, myokinase (MK), pyruvate kinase (PK), lactate dehydroganese (LDH) and PDE4 to a final volume of 20 mL, which is enough for a single 96-well assay plate. Assay mix (180 μL) and test article (10 μL) in 1:1 DMSO/H2O mixture is pre-incubated at room temperature for 10 min. The enzymatic reaction is initiated by addition of cAMP (10 μL). Final concentration of all components in the assay (200 μL/well) are as follows: 10 mM MgCl2, 50 mM KCl, 5 mM TCEP, 2.5% DMSO, 0.4 mM NADH, 1 mM PEP, 0.04 mM ATP, 5 units MK, 1 unit PK, 1 unit LDH and appropriate amount of PDE4. Reaction progress curves are monitored in a plate reader capable of measuring light absorbance at 340 nm. A decrease in light absorbance at 340 nm is due to oxidation of NADH. Positive controls containing no test article and negative controls containing no test article and no cAMP are included on every assay plate. Reaction rates are determined from the slopes of the linear portions of the progress curves. All data is percent normalized with respect to controls and presented as percent inhibition.

h4D7 = h4D7 (Homo sapiens, UniProt Q08499); experiment: as above; format: biochemical
Procedure: as §1

rat model = rat model in vivo; cited from earlier work
rodent models = conditions: multiple rodent models; cited from earlier work
primates = conditions: cited from earlier work
mice = conditions: two separate studies in mice in vivo; cited from earlier work
[1] = test system: rat model of Huntington's disease; conditions: cited from earlier work
human = human clinical trials; cited from earlier work
rats = conditions: cited from earlier work
[2] = test system: patients suffering from asthma and COPD; conditions: cited from earlier work; for results of administration to patients: asthma and COPD patients, initial

h4D7, sequence (Q08499 1-748 isoform Q08499-11): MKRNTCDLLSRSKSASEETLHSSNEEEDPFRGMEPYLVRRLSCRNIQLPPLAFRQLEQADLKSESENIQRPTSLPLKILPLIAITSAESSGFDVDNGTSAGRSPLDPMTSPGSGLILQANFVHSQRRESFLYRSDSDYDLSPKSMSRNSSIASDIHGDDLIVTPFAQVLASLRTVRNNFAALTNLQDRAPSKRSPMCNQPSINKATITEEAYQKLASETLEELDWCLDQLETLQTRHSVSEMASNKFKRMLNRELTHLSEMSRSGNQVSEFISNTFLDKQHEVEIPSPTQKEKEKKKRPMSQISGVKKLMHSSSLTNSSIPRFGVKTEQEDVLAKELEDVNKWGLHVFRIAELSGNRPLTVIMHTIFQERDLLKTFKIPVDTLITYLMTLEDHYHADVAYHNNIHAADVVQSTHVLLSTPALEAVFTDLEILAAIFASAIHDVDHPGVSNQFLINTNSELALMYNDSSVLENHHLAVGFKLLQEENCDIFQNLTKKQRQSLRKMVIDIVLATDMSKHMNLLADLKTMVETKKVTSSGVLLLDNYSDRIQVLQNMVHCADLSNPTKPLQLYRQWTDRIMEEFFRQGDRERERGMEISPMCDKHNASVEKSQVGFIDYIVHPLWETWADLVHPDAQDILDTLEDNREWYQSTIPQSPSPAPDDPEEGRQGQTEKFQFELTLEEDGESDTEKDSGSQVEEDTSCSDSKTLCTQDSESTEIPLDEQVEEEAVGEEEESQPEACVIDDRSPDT
h4B1, sequence (Q07343 whole entry): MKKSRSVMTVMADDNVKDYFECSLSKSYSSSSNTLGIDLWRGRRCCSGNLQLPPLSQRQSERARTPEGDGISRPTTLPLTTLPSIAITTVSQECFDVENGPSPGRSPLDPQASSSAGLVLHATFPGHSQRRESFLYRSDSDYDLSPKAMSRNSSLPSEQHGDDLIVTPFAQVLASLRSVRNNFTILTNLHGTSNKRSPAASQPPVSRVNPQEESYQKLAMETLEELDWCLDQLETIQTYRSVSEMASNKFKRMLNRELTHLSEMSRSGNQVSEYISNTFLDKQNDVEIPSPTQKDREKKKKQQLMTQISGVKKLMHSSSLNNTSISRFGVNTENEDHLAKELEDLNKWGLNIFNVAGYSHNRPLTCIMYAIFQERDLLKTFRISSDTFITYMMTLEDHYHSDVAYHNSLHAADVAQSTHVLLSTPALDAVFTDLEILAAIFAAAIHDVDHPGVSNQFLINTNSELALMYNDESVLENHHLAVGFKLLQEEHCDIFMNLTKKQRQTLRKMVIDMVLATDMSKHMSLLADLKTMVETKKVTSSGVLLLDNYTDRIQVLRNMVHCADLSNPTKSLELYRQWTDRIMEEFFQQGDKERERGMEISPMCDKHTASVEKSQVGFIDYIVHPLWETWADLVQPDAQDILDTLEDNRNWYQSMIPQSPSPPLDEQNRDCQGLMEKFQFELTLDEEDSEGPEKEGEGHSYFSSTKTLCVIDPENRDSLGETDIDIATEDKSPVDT

Compound: CCNC(=O)Nc1ccc(Cc2cc3scnc3c(-c3cccc(Cl)c3)c2F)cc1 [Example 30, 1-{4-[4-(3-chloro-phenyl)-5-fluoro-benzothiazol-6-ylmethyl]-phenyl}-3-ethyl-urea]
- IC50 (h4B1): < 1000 nM
- IC50 (h4D7): < 1000 nM

Compound: NC(=O)N1CCN(Cc2cc3scnc3c(-c3cccc(Cl)c3)c2F)CC1 [Example 31, 4-[4-(3-Chloro-phenyl)-5-fluoro-benzothiazol-6-ylmethyl]-piperazine-1-carboxylic acid amide]
- IC50 (h4B1): < 1000 nM
- IC50 (h4D7): < 1000 nM

Compound: Nc1ccc(Cc2cc(-c3cccc(Cl)c3)c3nc(N)oc3c2)cc1 [Example 32, 6-(4-aminobenzyl)-4-(3-chlorophenyl)-1,3-benzoxazol-2-amine]
- IC50 (h4B1): < 1000 nM
- IC50 (h4D7): < 1000 nM

Compound: CCNC(=O)Nc1ccc(Cc2cc3scnc3c(-c3cccc(Cl)c3)c2F)cn1 [Example 33, 1-[5-[4-(3-chloro-phenyl)-5-fluoro-benzothiazol-6-ylmethyl]-pyridin-2-yl]-3-ethyl-urea]
- IC50 (h4B1): < 1000 nM
- IC50 (h4D7): < 1000 nM

Compound: COc1ccc(Cc2cc3scnc3c(-c3cccc(Cl)c3)c2F)cn1 [Example 38, 4-(3-chloro-phenyl)-5-fluoro-6-(6-methoxy-pyridin-3-ylmethyl)-benzothiazole]
- IC50 (h4B1): 1000 to 10000 nM
- IC50 (h4D7): < 1000 nM

Compound: Oc1cccc(Cc2cc3scnc3c(-c3cccc(Cl)c3)c2F)c1 [Example 39, 3-[4-(3-chloro-phenyl)-5-fluoro-benzothiazol-6-ylmethyl]-phenol]
- IC50 (h4B1): 1000 to 10000 nM
- IC50 (h4D7): < 1000 nM

Compound: CCOC(=O)Nc1ccc(Cc2cc3scnc3c(-c3cccc(Cl)c3)c2F)cn1 [Example 40, {5-[4-(3-chloro-phenyl)-5-fluoro-benzothiazol-6-ylmethyl]-pyridin-2-yl}-carbamic acid ethyl ester]
- IC50 (h4B1): > 30000 nM
- IC50 (h4D7): < 1000 nM

Compound: CC(=O)N1CCN(Cc2cc3scnc3c(-c3cccc(Cl)c3)c2F)CC1 [Example 44, 1-{4-[4-(3-Chloro-phenyl)-5-fluoro-benzothiazol-6-ylmethyl]-piperazin-1-yl}-ethanone]
- IC50 (h4B1): 10000 to 20000 nM
- IC50 (h4D7): 1000 to 10000 nM

Compound: CCOC(=O)NC1CCN(Cc2cc3scnc3c(-c3cccc(Cl)c3)c2F)CC1 [Example 45, {1-[4-(3-Chloro-phenyl)-5-fluoro-benzothiazol-6-ylmethyl]-piperidin-4-yl}-carbamic acid ethyl ester]
- IC50 (h4B1): 1000 to 10000 nM
- IC50 (h4D7): < 1000 nM

Compound: Cc1noc(/C(=C/c2cccc(-c3cc(C(C)(C)S(C)(=O)=O)cc4cccnc34)c2)c2ccc(S(C)(=O)=O)cc2)n1 [L-454,560]
- learning (rat model): improve learning

Compound: COc1ccc(C2CNC(=O)C2)cc1OC1CCCC1 (stereo not drawn) [Rolipram]
- cognition (rodent models): enhance cognition
- cognition (primates): enhance cognition
- outcome in schizophrenia models (mice): improves the outcome
- neuroprotection [1]: neuroprotective effect
- depression (human): ameliorate depression

Compound: CCc1ccc2c(-c3cccc(Cl)c3)nc(=O)n(CC)c2n1 [YM976]
- effects of experimentally-induced interstitial cystitis (rats): ameliorate the effects
- frequency of urination (rats): decrease
- volume of urine at each time of urination (rats): increase

Compound: COc1ccc([C@]2(C#N)CC[C@@H](C(=O)O)CC2)cc1OC1CCCC1 [cilomilast]
- results of administration to patients [2]: initially excellent results
- effect on long-term trial ([2]; long-term trial): disappeared

Compound: O=C(Nc1c(Cl)cncc1Cl)c1ccc(OC(F)F)c(OCC2CC2)c1 [roflumilast]
- results of administration to patients [2]: initially excellent results

Reference: US8883833B2, “Substituted benzoazole PDE4 inhibitors for treating inflammatory, cardiovascular and CNS disorders” (Decode Genetics EHF, priority 2007, dated 2014)
